# From patent EP0545103A1, “Insecticidal, acaricidal and molluscicidal 1-(substituted) thioalkylpyrroles” (priority 1991, dated 1993)
# System: Spodoptera eridania, 3rd instar larvae, southern armyworm
# Test: Southern armyworm 3rd instar test, dipped limabean leaf
# Format: in vivo
# Parameters: key: 0: no effect; 10-25% kill; 26-35% kill; 36-45% kill; 46-55% kill; 56-65% kill; 66-75% kill; 76-85% kill; 86-99% kill; 9: 100% kill
# Settings: 10 ppm; rating at 3 days
# Outline: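 Ten 3rd instar larvae fed on limabean leaves that had been dipped for 3 s in test solution and dried. Test solutions were diluted in water from a 10,000 ppm stock in 35% acetone/water. Ratings at days 3 and 5 covered death, feeding reduction and abnormal molting.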
row,SMILES,ARMYWORM Day 3
1,CSCn1c(-c2ccc(Cl)cc2)c(C#N)c(Br)c1C(F)(F)F [Example 25],0
2,CN(C)C(=S)SCn1c(-c2ccc(Cl)cc2)c(C#N)c(Br)c1C(F)(F)F [Example 24],9 (100% kill)

# Same assay, conditions: 10 ppm; rating at 5 days
row,SMILES,ARMYWORM Day 5
1,CSCn1c(-c2ccc(Cl)cc2)c(C#N)c(Br)c1C(F)(F)F [Example 25],0
2,CN(C)C(=S)SCn1c(-c2ccc(Cl)cc2)c(C#N)c(Br)c1C(F)(F)F [Example 24],9 (100% kill)

# Same assay, conditions: 100 ppm; rating at 3 days
row,SMILES,ARMYWORM Day 3
1,CSCn1c(-c2ccc(Cl)cc2)c(C#N)c(Br)c1C(F)(F)F [Example 25],9 (100% kill)
2,CN(C)C(=S)SCn1c(-c2ccc(Cl)cc2)c(C#N)c(Br)c1C(F)(F)F [Example 24],9 (100% kill)

# Same assay, conditions: 100 ppm; rating at 5 days
row,SMILES,ARMYWORM Day 5
1,CSCn1c(-c2ccc(Cl)cc2)c(C#N)c(Br)c1C(F)(F)F [Example 25],9 (100% kill)
2,CN(C)C(=S)SCn1c(-c2ccc(Cl)cc2)c(C#N)c(Br)c1C(F)(F)F [Example 24],9 (100% kill)

# Same assay, conditions: 1000 ppm; rating at 3 days
row,SMILES,ARMYWORM Day 3
1,CSCn1c(-c2ccc(Cl)cc2)c(C#N)c(Br)c1C(F)(F)F [Example 25],9 (100% kill)
2,CN(C)C(=S)SCn1c(-c2ccc(Cl)cc2)c(C#N)c(Br)c1C(F)(F)F [Example 24],9 (100% kill)

# Same assay, conditions: 1000 ppm; rating at 5 days
row,SMILES,ARMYWORM Day 5
1,CSCn1c(-c2ccc(Cl)cc2)c(C#N)c(Br)c1C(F)(F)F [Example 25],9 (100% kill)
2,CN(C)C(=S)SCn1c(-c2ccc(Cl)cc2)c(C#N)c(Br)c1C(F)(F)F [Example 24],9 (100% kill)

# System: Spodoptera eridania, 3rd instar larvae, southern armyworm
# Test: Southern armyworm systemic uptake (stem systemic) test
# Format: in vivo
# Parameters: key: 0: no effect; 10-25% kill; 26-35% kill; 36-45% kill; 46-55% kill; 56-65% kill; 66-75% kill; 76-85% kill; 86-99% kill; 9: 100% kill
# Settings: cut stem in emulsion 3 days
row,SMILES,ARMYWORM Stem Sys
1,CSCn1c(-c2ccc(Cl)cc2)c(C#N)c(Br)c1C(F)(F)F [Example 25],0
2,CN(C)C(=S)SCn1c(-c2ccc(Cl)cc2)c(C#N)c(Br)c1C(F)(F)F [Example 24],0

# System: Tetranychus urticae (OP-resistant strain), 2-spotted spider mite
# Test: 2-spotted spider mite test, dipped infested limabean plants
# Format: in vivo
# Parameters: key: 0: no effect; 10-25% kill; 26-35% kill; 36-45% kill; 46-55% kill; 56-65% kill; 66-75% kill; 76-85% kill; 86-99% kill; 9: 100% kill
# Settings: 10 ppm; mortality rating after 2 days
# Outline: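 Compound dissolved at 10,000 ppm in 35% aqueous acetone, then water-diluted; limabean primary leaves carrying ~100 OP-resistant mites each are dipped 3 s and dried. Adult mortality read on one leaf after 2 days, eggs/newly emerged nymphs on another after 5 days, scored by rating scale.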
row,SMILES,OP-RESISTANT MITES Adult
1,CN(C)C(=S)SCn1c(-c2ccc(Cl)cc2)c(C#N)c(Br)c1C(F)(F)F [Example 24],9 (100% kill)

# Same assay, conditions: 10 ppm; rating after 5 days
SMILES,OP-RESISTANT MITES Egg,OP-RESISTANT MITES Nymph
CN(C)C(=S)SCn1c(-c2ccc(Cl)cc2)c(C#N)c(Br)c1C(F)(F)F [Example 24],0,0

# Same assay, conditions: 100 ppm; mortality rating after 2 days
row,SMILES,OP-RESISTANT MITES Adult
1,CN(C)C(=S)SCn1c(-c2ccc(Cl)cc2)c(C#N)c(Br)c1C(F)(F)F [Example 24],9 (100% kill)

# Same assay, conditions: 100 ppm; rating after 5 days
row,SMILES,OP-RESISTANT MITES Egg
1,CN(C)C(=S)SCn1c(-c2ccc(Cl)cc2)c(C#N)c(Br)c1C(F)(F)F [Example 24],9 (100% kill)

# Same assay, conditions: 300 ppm; mortality rating after 2 days
row,SMILES,OP-RESISTANT MITES Adult
1,CSCn1c(-c2ccc(Cl)cc2)c(C#N)c(Br)c1C(F)(F)F [Example 25],7 (76-85% kill)
2,CN(C)C(=S)SCn1c(-c2ccc(Cl)cc2)c(C#N)c(Br)c1C(F)(F)F [Example 24],0

# Same assay, conditions: 300 ppm; rating after 5 days
SMILES,OP-RESISTANT MITES Egg,OP-RESISTANT MITES Nymph
CSCn1c(-c2ccc(Cl)cc2)c(C#N)c(Br)c1C(F)(F)F [Example 25],0,0
CN(C)C(=S)SCn1c(-c2ccc(Cl)cc2)c(C#N)c(Br)c1C(F)(F)F [Example 24],9 (100% kill),–

# System: Aphis fabae, mixed instar, bean aphid
# Test: Bean aphid spray test on nasturtium
# Format: in vivo
# Parameters: key: 0: no effect; 10-25% kill; 26-35% kill; 36-45% kill; 46-55% kill; 56-65% kill; 66-75% kill; 76-85% kill; 86-99% kill; 9: 100% kill
# Settings: 100 ppm; spray; mortality rating after 2 days
# Outline: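 Mortality rated on a scale 2 days after treatment of aphid-infested (100-200 per plant, infested a day earlier) ~5 cm nasturtiums sprayed to complete coverage. Spray solutions: 10,000 ppm compound in 35% acetone in water, with further water dilutions.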
row,SMILES,APHIDS
1,CSCn1c(-c2ccc(Cl)cc2)c(C#N)c(Br)c1C(F)(F)F [Example 25],0
2,CN(C)C(=S)SCn1c(-c2ccc(Cl)cc2)c(C#N)c(Br)c1C(F)(F)F [Example 24],7 (76-85% kill)

# System: Empoasca abrupta, adult, western potato leafhopper
# Test: Western potato leafhopper contact test, dipped limabean leaf
# Format: in vivo
# Parameters: key: 0: no effect; 10-25% kill; 26-35% kill; 36-45% kill; 46-55% kill; 56-65% kill; 66-75% kill; 76-85% kill; 86-99% kill; 9: 100% kill
# Settings: 10 ppm; mortality rating after 2 days
# Outline: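 Sieva limabean leaf dipped 3 s in compound solution (diluted in water from 10,000 ppm stock in 35% acetone), dried, and infested with about 10 adult leafhoppers on moist filter paper. Mortality counted after 2 days and scored on a rating scale.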
row,SMILES,LEAFHOPPER Contact
1,CSCn1c(-c2ccc(Cl)cc2)c(C#N)c(Br)c1C(F)(F)F [Example 25],0
2,CN(C)C(=S)SCn1c(-c2ccc(Cl)cc2)c(C#N)c(Br)c1C(F)(F)F [Example 24],0

# Same assay, conditions: 100 ppm; mortality rating after 2 days
row,SMILES,LEAFHOPPER Contact
1,CSCn1c(-c2ccc(Cl)cc2)c(C#N)c(Br)c1C(F)(F)F [Example 25],9 (100% kill)
2,CN(C)C(=S)SCn1c(-c2ccc(Cl)cc2)c(C#N)c(Br)c1C(F)(F)F [Example 24],9 (100% kill)

# System: Empoasca abrupta, adult, western potato leafhopper
# Test: Western potato leafhopper systemic uptake test
# Format: in vivo
# Parameters: key: 0: no effect; 10-25% kill; 26-35% kill; 36-45% kill; 46-55% kill; 56-65% kill; 66-75% kill; 76-85% kill; 86-99% kill; 9: 100% kill
# Settings: 100 ppm; cut stem in emulsion 3 days; mortality rating after 2 days
# Outline: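 Leafhopper mortality, rated on a scale, scored 2 days after about 10 adults were confined with a leaf in a moist dish. The leaf came from a cut lima bean stem that had taken up the compound emulsion (100 ppm and 10-fold dilutions) over 3 days at 27 °C.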
row,SMILES,LEAFHOPPER Systemic
1,CSCn1c(-c2ccc(Cl)cc2)c(C#N)c(Br)c1C(F)(F)F [Example 25],0
2,CN(C)C(=S)SCn1c(-c2ccc(Cl)cc2)c(C#N)c(Br)c1C(F)(F)F [Example 24],0
